Test results: article PMC11876601 (Molecular Systems Biology, 2025)
Where two headings read alike, the source gives them in different places.

Tests used:
Assay in all cases: cells
[1] = system: Suit2-07; parameters: Viability of PDAC cell lines, ATPlite luminescence, 11-dose single-agent curve fit; settings: 72 h, read-out: EC50 [nM]
Method in brief: (§1)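 cells (1000 to 5000 per well) seeded 24 h before drug addition in a screen at 0.2% final DMSO. Controls were drug-free wells (negative) and 5 µM staurosporine (positive).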

[2] = system: Capan-1; parameters: Viability of PDAC cell lines, ATPlite luminescence, 11-dose single-agent curve fit; settings: Homo sapiens, CAPAN-1, 72 h, read-out: EC50 [nM]
Method in brief: as §1

[3] = system: MiaPaCa-2; parameters: Viability of PDAC cell lines, ATPlite luminescence, 11-dose single-agent curve fit; settings: Homo sapiens, MIA PaCa-2, 72 h, read-out: EC50 [nM]
Method in brief: as §1

[4] = system: AsPC-1; parameters: Viability of PDAC cell lines, ATPlite luminescence, 11-dose single-agent curve fit; settings: Homo sapiens, ASPC1, 72 h, read-out: EC50 [nM]
Method in brief: as §1

[5] = system: Colo-357; parameters: Viability of PDAC cell lines, ATPlite luminescence, 11-dose single-agent curve fit; settings: Homo sapiens, COLO357, 72 h, read-out: EC50 [nM]
Method in brief: as §1

[6] = system: PSN-1; parameters: Viability of PDAC cell lines, ATPlite luminescence, 11-dose single-agent curve fit; settings: Homo sapiens, PSN1, 72 h, read-out: EC50 [nM]
Method in brief: as §1

[7] = system: PANC-1; parameters: Viability of PDAC cell lines, ATPlite luminescence, 11-dose single-agent curve fit; settings: Homo sapiens, PANC-1, 72 h, read-out: EC50 [nM]
Method in brief: as §1

[8] = system: BxPC-3; parameters: Viability of PDAC cell lines, ATPlite luminescence, 11-dose single-agent curve fit; settings: Homo sapiens, BXPC-3, 72 h, read-out: EC50 [nM]
Method in brief: as §1

[9] = system: HuP-T4; parameters: Viability of PDAC cell lines, ATPlite luminescence, 11-dose single-agent curve fit; settings: Homo sapiens, HuP-T4, 72 h, read-out: EC50 [nM]
Method in brief: as §1

[10] = system: PaTu-8988-T; parameters: Viability of PDAC cell lines, ATPlite luminescence, 11-dose single-agent curve fit; settings: Homo sapiens, PaTu 8988t, 72 h, read-out: EC50 [nM]
Method in brief: as §1

[11] = system: HPDE; parameters: Viability of PDAC cell lines, ATPlite luminescence, 11-dose single-agent curve fit; settings: HPDE, 72 h, read-out: EC50 [nM]
Method in brief: as §1

[12] = system: Dan-G; parameters: ATPlite luminescence viability of PDAC cell lines, 11-dose single-agent curves, 4-parameter fit; settings: 72 h, read-out: EC50 [nM]
Protocol: (§2) Afterward, small amounts were transferred to 384-well intermediate plates (Greiner Bio-One GmbH, Germany). […] For drug combination screening, 1000 to 5000 cells were seeded into 384-well plates (CulturPlate™, Perkin Elmer, MA, USA) using a Multidrop™ Combi Reagent Dispenser (Thermo Scientific, MA, USA) in 50 µl medium per well 24 h prior to drug treatment (seeding densities see Appendix Table S1). […] The final DMSO concentration in each well was 0.2%. […] Eight wells per plate without library drug served as negative controls, and sixteen wells per plate containing 5 µM Staurosporine served as positive controls. […] Next, we analyzed the drug sensitivity of immortalized duct cell line HPDE to detect effects unrelated to pancreatic cancer.

[13] = system: FAMPAC; parameters: ATPlite luminescence viability of PDAC cell lines, 11-dose single-agent curves, 4-parameter fit; settings: 72 h, read-out: EC50 [nM]
Protocol: as §2

[14] = system: Dan-G; parameters: Viability of PDAC cell lines, ATPlite luminescence, 11-dose single-agent curve fit; settings: 72 h, read-out: EC50 [nM]
Method in brief: as §1

[15] = system: FAMPAC; parameters: Viability of PDAC cell lines, ATPlite luminescence, 11-dose single-agent curve fit; settings: 72 h, read-out: EC50 [nM]
Method in brief: as §1

| SMILES | EC50 [3] [nM] | EC50 [4] [nM] | EC50 [5] [nM] | EC50 [7] [nM] | EC50 [8] [nM] | EC50 [1] [nM] | EC50 [2] [nM] | EC50 [6] [nM] | EC50 [9] [nM] | EC50 [10] [nM] | EC50 [11] [nM] | EC50 [12] [nM] | EC50 [13] [nM] | EC50 [14] [nM] | EC50 [15] [nM] |
| --- | --- | --- | --- | --- | --- | --- | --- | --- | --- | --- | --- | --- | --- | --- | --- |
| O=C(c1cc(Cc2n[nH]c(=O)c3ccccc23)ccc1F)N1CCN(C(=O)C2CC2)CC1 [Olaparib] | 5000 | 446 | 7820 | > 10000 | 3550 | 9600 | > 10000 | > 10000 | 3200 | 1870 | 1490 | 3940 | 8230 |  |  |
| Cc1[nH]c(/C=C2\C(=O)Nc3ccccc32)c(C)c1CCC(=O)O [Orantinib] | 47 | 145 | 2.98 | 568 | 1040 | 2.77 | 17.6 | 366 | 2430 | 135 | 61.9 |  |  | 487 | 0.01 |
| FC(F)(F)c1ccc(CNc2ccc(Cc3c[nH]c4ncc(Cl)cc34)cn2)cn1 [Pexidartinib] | 2640 | 9890 | 10100 | 2210 | 8880 | 1100 | > 10000 | 6940 | 4690 | 46.5 | 10200 |  |  | 6180 | 4000 |
| CCCS(=O)(=O)Nc1ccc(F)c(C(=O)c2c[nH]c3ncc(-c4ccc(Cl)cc4)cc23)c1F [Vemurafenib] | > 10000 | 869 | 5000 | 6.65 | > 10000 | 1590 | > 10000 | > 10000 | > 10000 | 708 | > 10000 |  |  | > 10000 | 2990 |
| CCN(CCCOc1ccc2c(Nc3cc(CC(=O)Nc4cccc(F)c4)[nH]n3)ncnc2c1)CCOP(=O)(O)O [Barasertib] | 4.24 | 56.3 | 852 | 74 | 53.6 | 3290 | 42 | 32.6 | 56.8 | 10300 | 74.6 |  |  | 296 | 40.1 |
| Cc1cc(F)c(C(=O)Nc2cccc(-c3nncn3C(C)C)n2)cc1-n1cnc(C2CC2)c1 [Selonsertib] | 4950 | 755 | > 10000 | 8800 | > 10000 | 4310 | 8570 | 6150 | 3.85 | 5440 | > 10000 |  |  | 10300 | > 10000 |
| Cc1cccc(-c2[nH]c(CNc3ccccc3F)nc2-c2ccc3ncnn3c2)n1 [Vactosertib] | 6110 | 78.2 | 7510 | 3660 | 2150 | 0.8 | 809 | 4290 | 17.8 | 838 | 217 |  |  | 51.8 | 3450 |
| COc1cc2nccc(Oc3ccc(NC(=O)NC4CC4)c(Cl)c3)c2cc1C(N)=O [Lenvatinib] | 4890 | 394 | 4390 | 655 | > 10000 | 0.2 | 7850 | 7480 | 0.14 | > 10000 | > 10000 |  |  | 39.1 | 164 |
| CC#CC(=O)N1CCC[C@H]1c1nc(-c2ccc(C(=O)Nc3ccccn3)cc2)c2c(N)nccn12 [Acalabrutinib] | 718 | 1.48 | 2640 | 365 | 756 | 13.1 | 3020 | 4470 | 632 | 1590 | 703 |  |  | 553 | > 10000 |
| CCC(=O)N1CC[C@H](Nc2ncnc3c2CN(c2cnc(OC)c(C(F)(F)F)c2)CC3)C1 [Leniolisib] | > 10000 | 2110 | 3830 | > 10000 | 2210 | 4720 | 4340 | 8970 | 733 | 9180 | 6030 |  |  | 6460 | 2610 |

More lines, main results first:

| EC50 [3] [nM] | EC50 [4] [nM] | EC50 [5] [nM] | EC50 [7] [nM] | EC50 [8] [nM] | SMILES | EC50 [1] [nM] | EC50 [2] [nM] | EC50 [6] [nM] | EC50 [9] [nM] | EC50 [10] [nM] | EC50 [11] [nM] | EC50 [12] [nM] | EC50 [13] [nM] | EC50 [14] [nM] | EC50 [15] [nM] |
| --- | --- | --- | --- | --- | --- | --- | --- | --- | --- | --- | --- | --- | --- | --- | --- |
| > 10000 | 26.5 | 0.12 | 655 | 683 | CC(C)Oc1ccc(-c2nn([C@@H](C)c3oc4ccc(F)cc4c(=O)c3-c3cccc(F)c3)c3ncnc(N)c23)cc1F [Umbralisib] | 1310 | 39.7 | 62.6 | 1370 | 4550 | 6540 |  |  | 441 | 8790 |
| 3580 | 1050 | 196 | 260 | 1780 | Cc1cn(-c2cc(NC(=O)c3ccc(C)c(Nc4nccc(-c5cnccn5)n4)c3)cc(C(F)(F)F)c2)cn1 [Radotinib] | 99.5 | 4010 | 11 | > 10000 | 1390 | 6.45 |  |  | 5910 | 4270 |
| 1740 | 23.6 | 8280 | 1370 | 6970 | N#CC[C@H](C1CCCC1)n1cc(-c2ncnc3[nH]ccc23)cn1 [Ruxolitinib] | 1750 | 0.51 | 2210 | 212 | 13.4 | > 10000 |  |  | 117 | 9910 |
| 8640 | 114 | 226 | 3950 | 2030 | C[C@@H](c1ccc2nccn2c1)n1nnc2ncc(-c3cnn(C)c3)nc21 [Volitinib] | 285 | > 10000 | 16.9 | 91.1 | > 10000 | 80 |  |  | 5780 | 1030 |
| 770 | 17.1 | 75 | 21.2 | 52.1 | N#CCC1(n2cc(-c3ncnc4[nH]ccc34)cn2)CN(C2CCN(C(=O)c3ccnc(C(F)(F)F)c3F)CC2)C1 [Itacitinib] | 72.1 | 142 | 124 | 316 | 292 | 873 |  |  | 3820 | 1420 |
| 2520 | 292 | 515 | 804 | 1670 | CONC(=O)c1ccccc1Nc1cc(Nc2cc(C)nn2C(C)C)ncc1Cl [GSK2256098] | 6450 | 1650 | 5120 | 4790 | 858 | 156 |  |  | 3730 | 3020 |
